Test results as given in patent publication US10988523B2, “Modified lipidated Relaxin B chain peptides and their therapeutic use” (Sanofi, priority 2018, dated 2021).
*1 amine or outer side, *2 acyl side, *3 side chain or, on linkers, in order; H or OH if unused. Where a SMILES comes first, the peptide text is derived from it. Side-chain parts run from the residue outwards. [ ]: non-standard residue; d: D form. The star is where a group is joined. X9 = CCCCCCCCCCCCCCCCCC(=O)N[C@@H](CCC(=O)N[C@@H](CCC(=O)N[C@@H](CCC(=O)NCCCC[C@H](NC(=O)COCC(=O)NCCCOCCOCCOCCCN*)C(N)=O)C(=O)O)C(=O)O)C(=O)O; γGlu = O=C(O)[C@H](CCC(=O)[*:2])N[*:1]; Pentadecanoyl = CCCCCCCCCCCCCCC(=O)*; Stearoyl = CCCCCCCCCCCCCCCCCC(=O)*; Palmitoyl = CCCCCCCCCCCCCCCC(=O)*; αMeK = C[C@](N)(CCCCN)C(=O)O; Nle = CCCC[C@H](N)C(=O)O; AEEA = NCCOCCOCC(=O)O; Aib = CC(C)(N)C(=O)O

Biological target: T1, RXFP1 (Homo sapiens, UniProt Q9HBX9)
T1 construct: OVCAR5 cells expressing endogenous RXFP1; endogenous in cells; host or cells: OVCAR5 cells
T1 sequence (Q9HBX9 1-757): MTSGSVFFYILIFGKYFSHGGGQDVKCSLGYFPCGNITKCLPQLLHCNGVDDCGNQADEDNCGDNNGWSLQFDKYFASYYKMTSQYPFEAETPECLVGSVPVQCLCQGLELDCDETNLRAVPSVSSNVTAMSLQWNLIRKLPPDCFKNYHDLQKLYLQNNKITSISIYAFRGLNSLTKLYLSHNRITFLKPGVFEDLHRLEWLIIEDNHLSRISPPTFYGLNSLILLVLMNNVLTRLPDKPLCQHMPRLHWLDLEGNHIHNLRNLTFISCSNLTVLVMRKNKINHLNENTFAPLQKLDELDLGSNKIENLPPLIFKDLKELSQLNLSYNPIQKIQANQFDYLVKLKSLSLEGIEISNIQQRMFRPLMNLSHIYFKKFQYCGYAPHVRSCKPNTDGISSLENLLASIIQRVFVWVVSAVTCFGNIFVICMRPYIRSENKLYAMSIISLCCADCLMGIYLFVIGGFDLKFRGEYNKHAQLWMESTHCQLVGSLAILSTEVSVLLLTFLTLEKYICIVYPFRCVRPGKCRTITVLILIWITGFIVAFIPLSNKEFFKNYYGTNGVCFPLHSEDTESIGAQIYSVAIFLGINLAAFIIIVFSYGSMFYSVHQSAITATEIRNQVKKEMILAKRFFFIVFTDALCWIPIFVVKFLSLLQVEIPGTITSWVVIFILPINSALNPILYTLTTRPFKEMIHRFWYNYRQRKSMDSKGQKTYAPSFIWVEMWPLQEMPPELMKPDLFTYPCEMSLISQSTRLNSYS
Assay: OVCAR5 cAMP assay (HTRF), RXFP1 agonist activity
Assay type: cell-based
Conditions: for EC50: OVCAR5 cells, cAMP HTRF, read-out: EC50 (nM), OVCAR 5 cells (cAMP); for Emax: OVCAR-5, maximal cAMP relative to H2-relaxin maximum (100%), read-out: EMax, OVCAR 5 cells (cAMP)
In short: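 cAMP accumulation readout: after 1 mM IBMX for 40 min, endogenous-RXFP1 OVCAR5 cells got rising peptide concentrations without FCS, 30 min, 37° C, then lysis with HTRF cAMP reagents. Nonlinear regression gave EC50; Emax expressed relative to H2-relaxin maximum, same occasion.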

Structure (SMILES) | EC50 | Emax
CCCCCCCCCCCCCCCCCC(=O)N[C@@H](CCC(=O)N[C@@H](CCC(=O)N[C@@H](CCC(=O)N[C@@H](CCC(=O)NCCOCCOCC(=O)NCCOCCOCC(=O)NCCOCCOCC(=O)NCCCC[C@H](NC(=O)[C@H](CCCCN)NC(=O)[C@H](CCCCN)NC(=O)[C@H](CCCNC(=N)N)NC(=O)C(C)(C)NC(=O)[C@H](CO)NC(=O)[C@H](Cc1c[nH]c2ccccc12)NC(=O)[C@@H](NC(=O)[C@H](CO)NC(=O)[C@H](CCC(N)=O)NC(=O)CNC(=O)[C@H](CCC(=O)O)NC(=O)C(C)(C)NC(=O)C(C)(C)NC(=O)[C@@H](NC(=O)[C@H](CCCCNC(C)=O)NC(=O)[C@H](C)NC(=O)[C@H](CCCNC(=N)N)NC(=O)[C@@H](NC(=O)[C@H](CCCCN)NC(=O)[C@H](CCC(=O)O)NC(=O)[C@H](CCCNC(=N)N)NC(=O)CNC(=O)[C@H](CCC(=O)O)NC(=O)[C@H](CC(C)C)NC(C)=O)C(C)C)[C@@H](C)CC)[C@@H](C)O)C(N)=O)C(=O)O)C(=O)O)C(=O)O)C(=O)O [compound 115] (Ac-LEGREKVRAK(Ac)I[Aib][Aib]EGQSTWS[Aib]RKKK([AEEA-AEEA-AEEA-γGlu-γGlu-γGlu-γGlu-Stearoyl])-NH2) | 0.17 nM | 93%
CCCCCCCCCCCCCCCC(=O)N[C@@H](CCC(=O)N[C@@H](CCC(=O)NCCOCCOCC(=O)NCCCC[C@H](NC(=O)[C@H](CCCCN)NC(=O)[C@H](CCCNC(=N)N)NC(=O)C(C)(C)NC(=O)[C@H](CO)NC(=O)[C@H](Cc1c[nH]c2ccccc12)NC(=O)[C@@H](NC(=O)[C@H](CO)NC(=O)[C@H](CCCC)NC(=O)CNC(=O)[C@H](CCC(=O)O)NC(=O)C(C)(C)NC(=O)C(C)(C)NC(=O)[C@@H](NC(=O)[C@H](C)NC(=O)[C@H](C)NC(=O)[C@H](CCCNC(=N)N)NC(=O)[C@@H](NC(=O)[C@H](CCCCN)NC(=O)[C@H](CCC(=O)O)NC(=O)[C@H](CCCNC(=N)N)NC(=O)CNC(=O)[C@H](CCC(=O)O)NC(=O)[C@H](CC(C)C)NC(=O)[C@H](CCC(=O)O)NC(C)=O)C(C)C)[C@@H](C)CC)[C@@H](C)O)C(N)=O)C(=O)O)C(=O)O [compound 54] (Ac-ELEGREKVRAAI[Aib][Aib]EG[Nle]STWS[Aib]RKK([AEEA-γGlu-γGlu-Palmitoyl])-NH2) | – | 98%
CCCCCCCCCCCCCCCCCC(=O)N[C@@H](CCC(=O)N[C@@H](CCC(=O)N[C@@H](CCC(=O)NCCCC[C@H](NC(=O)COCC(=O)NCCCOCCOCCOCCCNC(=O)[C@H](CCCCNC(C)=O)NC(=O)[C@H](CCCCN)NC(=O)[C@H](CCCNC(=N)N)NC(=O)C(C)(C)NC(=O)[C@H](CO)NC(=O)[C@H](Cc1c[nH]c2ccccc12)NC(=O)[C@@H](NC(=O)[C@H](CO)NC(=O)[C@H](CCCC)NC(=O)CNC(=O)[C@H](CCC(=O)O)NC(=O)C(C)(C)NC(=O)C(C)(C)NC(=O)[C@@H](NC(=O)[C@H](CCCCNC(C)=O)NC(=O)[C@H](C)NC(=O)[C@H](CCCNC(=N)N)NC(=O)[C@@H](NC(=O)[C@H](CCCCN)NC(=O)[C@H](CCC(=O)O)NC(=O)[C@H](CCCNC(=N)N)NC(=O)CNC(=O)[C@H](CCC(=O)O)NC(=O)[C@H](CC(C)C)NC(C)=O)C(C)C)[C@@H](C)CC)[C@@H](C)O)C(N)=O)C(=O)O)C(=O)O)C(=O)O [compound 18] (Ac-LEGREKVRAK(Ac)I[Aib][Aib]EG[Nle]STWS[Aib]RKK(Ac)-X9) | 0.41 nM | 83%
CCCCCCCCCCCCCCCC(=O)N[C@@H](CCC(=O)N[C@@H](CCC(=O)N[C@@H](CCC(=O)NCCCC[C@H](NC(=O)COCCOCCNC(=O)COCCOCCNC(=O)COCCOCCNC(=O)[C@H](CCCCNC(C)=O)NC(=O)[C@H](CCCCN)NC(=O)[C@H](CCCNC(=N)N)NC(=O)C(C)(C)NC(=O)[C@H](CO)NC(=O)[C@H](Cc1c[nH]c2ccccc12)NC(=O)[C@@H](NC(=O)[C@H](CO)NC(=O)[C@H](CCCC)NC(=O)CNC(=O)[C@H](CCC(=O)O)NC(=O)C(C)(C)NC(=O)C(C)(C)NC(=O)[C@@H](NC(=O)[C@H](CCCCNC(C)=O)NC(=O)[C@H](C)NC(=O)[C@H](CCCNC(=N)N)NC(=O)[C@@H](NC(=O)[C@H](CCCCN)NC(=O)[C@H](CCC(=O)O)NC(=O)[C@H](CCCNC(=N)N)NC(=O)CNC(=O)[C@H](CCC(=O)O)NC(=O)[C@H](CC(C)C)NC(C)=O)C(C)C)[C@@H](C)CC)[C@@H](C)O)C(N)=O)C(=O)O)C(=O)O)C(=O)O [compound 114] (Ac-LEGREKVRAK(Ac)I[Aib][Aib]EG[Nle]STWS[Aib]RKK(Ac)[AEEA][AEEA][AEEA]K([γGlu-γGlu-γGlu-Palmitoyl])-NH2) | – | 90%
CCCCCCCCCCCCCCC(=O)N[C@@H](CCC(=O)N[C@@H](CCC(=O)N[C@@H](CCC(=O)N[C@@H](CCC(=O)NCCCC[C@H](NC(=O)COCCOCCNC(=O)COCCOCCNC(=O)COCCOCCNC(=O)COCCOCCNC(=O)[C@H](CCCCNC(C)=O)NC(=O)[C@H](C)NC(=O)[C@H](CCCNC(=N)N)NC(=O)[C@](C)(CCCCN)NC(=O)[C@H](CO)NC(=O)[C@H](Cc1ccccc1)NC(=O)[C@@H](NC(=O)[C@H](CO)NC(=O)[C@H](CCC(N)=O)NC(=O)CNC(=O)[C@H](CCC(=O)O)NC(=O)C(C)(C)NC(=O)C(C)(C)NC(=O)[C@@H](NC(=O)[C@H](CCCCNC(C)=O)NC(=O)[C@H](C)NC(=O)[C@H](CCCNC(=N)N)NC(=O)[C@@H](NC(=O)[C@H](CCCCN)NC(=O)[C@H](CCC(=O)O)NC(=O)[C@H](CCCNC(=N)N)NC(=O)CNC(=O)[C@H](CCC(=O)O)NC(=O)[C@H](CC(C)C)NC(C)=O)C(C)C)[C@@H](C)CC)[C@@H](C)O)C(N)=O)C(=O)O)C(=O)O)C(=O)O)C(=O)O [compound 182] (Ac-LEGREKVRAK(Ac)I[Aib][Aib]EGQSTFS[αMeK]RAK(Ac)[AEEA][AEEA][AEEA][AEEA]K([γGlu-γGlu-γGlu-γGlu-Pentadecanoyl])-NH2) | 0.19 nM | 99%
CCCCCCCCCCCCCCCCCC(=O)N[C@@H](CCC(=O)NCCOCCOCC(=O)NCCOCCOCC(=O)N[C@@H](CCC(=O)N[C@@H](CCC(=O)NCCCC[C@H](NC(=O)[C@H](CCCCN)NC(=O)[C@H](CCCCN)NC(=O)[C@H](CCCNC(=N)N)NC(=O)C(C)(C)NC(=O)[C@H](CO)NC(=O)[C@H](Cc1c[nH]c2ccccc12)NC(=O)[C@@H](NC(=O)[C@H](CO)NC(=O)[C@H](CCCC)NC(=O)CNC(=O)[C@H](CCC(=O)O)NC(=O)C(C)(C)NC(=O)C(C)(C)NC(=O)[C@@H](NC(=O)[C@H](CCC(N)=O)NC(=O)[C@H](C)NC(=O)[C@H](CCCNC(=N)N)NC(=O)[C@@H](NC(=O)[C@H](CCCCN)NC(=O)[C@H](CCC(=O)O)NC(=O)[C@H](CCCNC(=N)N)NC(=O)CNC(=O)[C@H](CCC(=O)O)NC(=O)[C@H](CC(C)C)NC(C)=O)C(C)C)[C@@H](C)CC)[C@@H](C)O)C(N)=O)C(=O)O)C(=O)O)C(=O)O [compound 105] (Ac-LEGREKVRAQI[Aib][Aib]EG[Nle]STWS[Aib]RKKK([γGlu-γGlu-AEEA-AEEA-γGlu-Stearoyl])-NH2) | 0.03 nM | 88%
